From patent publication US20120094939A1, “ANTI-VIRAL COMPOUNDS, COMPOSITIONS AND METHODS” (priority 2007, published 2012)
pIC50: −log10 of the molar value. Like-named read-outs stand apart in the source and are kept apart here.

Columns and labels:
[1] = tested on: Huh7/Rep-Feo HCV replicon (HCV RNA replication); type: cell-based, Hepatitis C virus (strain HCV—N, genotype 1b); settings: for R-CompZ, compositeZ score for reporter gene assay: Table 2 antiviral hits of DOS set, 48 hours
Text: Development of the Huh7/Rep-Feo replicon assay. […] This replicon was derived from a chimpanzee infectious clone (strain HCV—N, genotype 1b). In this replicon, the structural genes have been replaced by a reporter gene. The chimeric reporter gene Feo encodes the firefly luciferase protein fused in-frame with neomycin phosphotransferase. This Huh7/Rep-Feo cell supports high levels of autonomous HCV RNA replication because it was derived from the HCV—N strain, which carries an adaptive mutation in NSSA that confers highlevel replication in tissue culture. Furthermore, the level of luciferase correlates well with levels of HCV RNA production, so that luciferase can be used as a reliable surrogate marker for HCV replication. The use of luciferase as a reporter permits quantitative and highthroughput detection of HCV replication levels. The specific use of firefly luciferase makes this replicon especially well-suited for automation, because the luciferase reagent can be added directly to the cell culture system prior to signal detection without the need for cell lysis, washing, or aspiration.
HCV Replicon System-Primary Screening. […] Briefly, this replicon harbors a subgenomic HCV genotype 1b sequence, fused to firefly luciferase, stably replicating under neomycin selection. Cells were propagated in Dulbecco's Modified Eagle's medium (DMEM) containing 10% fetal bovine serum (FBS) supplemented with 1% penicillin-streptomycin, and 500 μg of Geneticin (Invitrogen Corp., Carlsbad, Calif.)/mL. Cells were cultured in a 37° C., 5% CO2-humidified incubator for all experiments. To decrease day-today variability in the assay, a large homogenous population of subconfluent cells was passaged so that a similar lot of cells could be used throughout the HTS assay.
(§1) Primary Screening-HTS. Information about the library of known bioactive compounds that was screened and the general automated HTS protocol is available at http://www.broad.harvard.edu/chembio/index.html (see FIG. 10 for list of primary HTS with known bioactives library). Based on the results of optimization experiments in the 384-well plate format, the general HTS protocol was adapted as follows. Unless otherwise indicated, cells were incubated at all times in a humidified environment with 5% CO2 at 37° C. The assay was initiated by plating 30 μL of medium containing 2000 cells/well into white 384-well opaque-bottom plates (Nunc, Rochester, N.Y.) using an automated plate filler (Bio-Tek uFiller; Winsooki, Vt.) and allowing the cells to adhere for 24 hours. One hundred nL of compound stock solutions in DMSO was transferred from stock plates into the 384-well assay plates using an automated pin-based compound transfer robot (CyBio CyBi-Well vario; Woburn, Mass.). The final compound concentration in each well was estimated to be approximately 10-50 μM, with most compounds at 33 μM. The wells contained 0.33% DMSO by volume. The cells were then incubated for another 48 hours. The luminescent signal from each plate was detected using an automated plate reader (Perkin-Elmer Envision 1; Wellesley, Mass.). This screen was performed in duplicate. For negative controls, entire DMSO-treated control plates were employed, in addition to DMSO-only control wells that were incorporated into each compound assay plate. The cells were assayed for luciferase activity using the Bright-Glo Luciferase assay system (Promega), following the manufacturer's instructions. As a counter-screen, cell viability was assessed using the CellTiterGlo Luminescent cell viability assay (Promega) following the manufacturer's instructions.
Computational Data Analysis-Primary Screening. For each replicate, a mock-treatment distribution based on the total population of mock (DMSO) controls in that replicate was built (FIG. 11).

[2] = tested on: OR6 cells harboring full-length genotype 1b HCV replicon ORN/C-5B/KE (HCV RNA replication); experiment: microbe, parasite or virus in culture; type: cell-based, Hepatitis C virus (strain HCV—O; settings: for proviral effect on HCV replication (in words) / antiviral activity (in words): OR6 full-length replicon; for proviral effect on HCV replication (in words): 0.1-100 μM
Text: (§2) HCV Replicon System-Secondary Assays. For validation, OR6 cells stably harboring the full-length genotype 1 replicon, ORN/C-5B/KE9 were used to examine compound activity in a more authentic viral polyprotein context. This replicon was derived from the 1B-2 strain (strain HCV—O, genotype 1b), in which the Renilla luciferase gene is introduced as a fusion protein with neomycin to facilitate the monitoring of HCV replication. This construct contains a tissue culture adaptive mutation in the NS3 region. Cells were cultured in an identical manner to the Huh7/Rep-Feo cells.
Secondary Assays-Hit Validation. Several hits from primary HTS, as well as functionally related compounds, were purchased from Sigma (St. Louis, Mo.), Calbiochem (San Diego, Calif.), and Microsource (Gaylordsville, Conn.). […] Ten mM of stock solutions of the individual compounds to be tested was prepared in the appropriate solvent (DMSO, ethanol, or H2O, according to the manufacturer's information) and stored at −20° C. Cells were seeded into 96-well plates at a density of 2000 cells/well in 100 μL of medium. The cells were incubated for 24 hours at 37° C. to obtain the optimal level of adherence. Solutions of candidate hit compounds were added to wells to achieve final concentrations of 0.1, 1, 10, 50, and 100 μM. The final concentration of DMSO or ethanol in every well was 1% or less by volume. Mock solutions were used as a negative control. PEG-IFN and ribavirin were used as positive controls at various concentrations, alone and in combination. The plates were then incubated at 37° C. with 5% CO2 for 48 hours before they were analyzed. Luminescent signal was generated using the Renilla luciferase assay kit (Promega) according to the manufacturer's instructions. Signal was then detected using a LumiCount (Packard BioScience Company) luminometer. Cell viability was assessed using CellTiter-Glo (Promega), following the manufacturer's instructions. All experiments were performed in triplicate.
Secondary Assays-Data Analysis. Values were presented as a percentage of mock treated control, which was arbitrarily set at 100%. Data were expressed as the mean (±) SD. […] Synergy calculations were performed using CalcuSyn (Biosoft; Cambridge, England).
as §2, with “System—Secondary Assays:” for “System-Secondary Assays.”, “For replicon” for “For”, “ORN/C-5B/KE” for “ORN/C-5B/KE9”, “(Burke J. Am. Chem. Soc. (2004) 126:14095-14104).” for “to examine compound activity in a more authentic viral polyprotein context.”, “the Neomycin resistance cassette” for “neomycin”
Secondary Assays—Hit Validation: 10 mM of stock solutions of the individual compounds to be tested were prepared in DMSO and stored at −20° C. Cells were seeded into 96-well plates at a density of 2,000 cells/well in 100 μl of medium. The cells were incubated for 24 hours at 37° C. to obtain the optimal level of adherence. Solutions of candidate hit compounds were added to wells to achieve varying final concentrations between 0.01 and 100 μM. The final concentration of DMSO or ethanol in every well was 1% or less by volume. Mock solutions were used as a negative control. Peginterferon-alfa-2b (PEG-Intron; Schering Corp.; Kenilworth, N.J.) and ribavirin (Sigma; St. Louis, Mo.) were used as positive controls at various concentrations, alone and in combination. The plates were then incubated at 37° C. with 5% CO2 for 48 hours before they were analyzed. Luminescent signal was generated using the Renilla luciferase assay kit (Promega; Madison, Wis.) according to the manufacturer's instructions. Signal was then detected using a LumiCount™ (Packard BioScience Company; Downers Grove, Ill.) luminometer.

[3] = tested on: Huh7/Rep-Feo cells; experiment: Primary HTS cell viability counter-screen (CellTiterGlo); type: cell-based, human; settings: Table 2 antiviral hits of DOS set; approximately 10-50 μM, most at 33 μM; 48 hours
Description: as §1
Computational Data Analysis-Primary Screening. For each replicate, a mock-treatment distribution based on the total population of mock (DMSO) controls in that replicate was built (FIG. 11). Each compound was independently assigned a sign (ie, “+” or “−”) Z-score. Z-scores are calculated by dividing each background-subtracted, compound-treated well by the global standard deviation. A global standard deviation of the background-subtracted, mock-treated wells is calculated over the entire experiment. This distribution was determined to be consistent with experimental noise observed under cell-based assay conditions. The resulting collection of continuousvalued Z-scores represents the primary data set to be used for further analysis. The composite Z-score was calculated as a vector projection of each Z-score in duplicate onto an imaginary line of perfect reproducibility. Reproducibility is the cosine of the angle between each Z-score and that imaginary line; it is dimensionless and ranges from −1 to +1. […] The primary data were analyzed using the commercial software packages Pipeline Pilot (SciTegic, San Diego, Calif.) and SpotFire (SpotFire, Inc., Somerville, Mass.). The means of the negative, DMSO-only controls were considered the zero point.
Primary Screening—HTS: Unless otherwise indicated, cells were incubated at all times in a humidified environment with 5% CO2 at 37° C. The assay was initiated by plating 30 μl of medium containing 2,000 cells/well into white 384-well opaque-bottom plates (Nunc; Rochester, N.Y.) using an automated plate filler (Bio-Tek μFiller; Winsooki, Vt.) and allowing the cells to adhere for 24 hours. 100 nl of compound stock solutions in DMSO were transferred from stock plates into the 384-well assay plates using an automated pin-based compound transfer robot (CyBio CyBi-Well vario; Woburn, Mass.). The final compound concentration in each well was estimated to be approximately 10-50 μM, with most compounds at 33 μM. The wells contained 0.33% DMSO by volume. The cells were then incubated for another 48 hours. […]

[4] = known bioactives library, approximately 10-50 μM, most at 33 μM
[5] = approximately 10-50 μM, most at 33 μM

For `CC(C)(O)[C@@H]1Cc2cc3ccc(=O)oc3cc2O1` [marmesin, reference compound], the “primary screen hit result (in words)” value [1, 4] was “Proviral”.

With `CC(C)C[C@H](NC(=O)OCC1c2ccccc2-c2ccccc21)C(=O)O` [N-(9-fluorenylmethoxycarbonyl)-L-leucine, reference compound] the “primary screen hit result (in words)” value [1, 4] was “proviral hit”, the “primary screen hit result (in words)” value ([1]; known bioactives library, approximately 10-50 μM, most at 33 μM, listed as N-9-fluorenylmethoxycarbonyl-L-leucine) was “Proviral” and the “proviral effect on HCV replication (in words)” value (“proviral effect” below) ([2]; 48 hours) was “mild proviral activity”.

`O=C1C2C=C(I)C(CC2OCCCCCCO)[C@@]12CO2` (stereo partly shown) [SM_A5B2_2P142] was tested, and the “R-CompZ, compositeZ score for reporter gene assay” value (shortened to “R-CompZ, compositeZ score”) [1, 5] was −2.7176 and the “C-CompZ, compositeZ score for cell viability assay” value (shortened to “C-CompZ, compositeZ score”) [3] was 0.5666.

In the case of `COc1ccc(O[C@H]2C=C[C@@H](c3ccccc3)O[C@@H]2CO/N=C(\C)CCN2CCc3nc(-c4ccccc4)c(-c4ccccc4)cc3C2)cc1` [BUCMLD-B13A1], the “R-CompZ, compositeZ score” value [1, 5] was −3.1824 and the “C-CompZ, compositeZ score” value [3] was −0.2035.

In the case of `O=c1n(-c2ccccc2)c(=O)n2n1CC[C@@H]1/C(=N/OC[C@@H](O)COCc3ccco3)[C@H]3O[C@H]3[C@@H](O)[C@@H]12` [BUCMLD-B10A8], the “R-CompZ, compositeZ score” value [1, 5] was −3.7511 and the “C-CompZ, compositeZ score” value [3] was 1.1582.

With `CC(C)c1c(C(=O)Nc2ccccc2)c(-c2ccccc2)c(-c2ccc(F)cc2)n1CC[C@@H](O)C[C@@H](O)CC(=O)O` [Atorvastatin, atorvastatin, reference compound] the “primary screen hit result (in words)” value [1] was “Antiviral” and the “antiviral activity (in words)” value ([2]; 48 hours) was “strong antiviral effects”.

`NC(=O)c1ncn([C@@H]2O[C@H](CO)[C@@H](O)[C@H]2O)n1` [ribavirin] gave a pIC50 ([2]; Hepatitis C virus, OR6, 48 h, read-out: IC50 (HCV RNA replication, luciferase), OR6 full-length genotype 1b replicon, 48 hours) of 4.00 to 4.30.

In the case of `O=C1C2C=C(I)C(CC2OCCCCO)[C@@]12CCCO2` (stereo partly shown) [SM_A12B3], the “antiviral activity (in words)” value ([2]; 48 hours) was “negligible antiviral activity”.

Work on `CC[C@H](C)C(=O)O[C@H]1C[C@H](O)C=C2C=C[C@H](C)[C@H](CC[C@@H](O)C[C@@H](O)CC(=O)O)[C@H]21` [Pravastatin, pravastatin] yielded an inhibition at 100 µM ([2]; Hepatitis C virus, OR6, read-out: inhibition of HCV replication) of 30%.

`COc1ccc(CCN(C)CCCC(C#N)(c2ccc(OC)c(OC)c2)C(C)C)cc1OC` (stereo not shown) [verapamil] was tested, and the “antiviral activity (in words)” value ([2]; 48 hours) was “did not exhibit antiviral activity”.

In the case of `Oc1ccc(-c2nc(-c3ccc(F)cc3)c(-c3ccncc3)[nH]2)cc1` [SB 202109, reference compound], the “primary screen hit result (in words)” value [1, 4] was “inactive” and the “antiviral activity (in words)” value ([2]; 48 hours) was “inactive”.

In the case of `CC(C)C1COc2cc3oc(=O)ccc3cc2O1` (stereo not shown) [dihydrobliquin, reference compound], the “primary screen hit result (in words)” value [1, 4] was “Proviral”.

In the case of `CC[C@H](C)C(=O)O[C@H]1C[C@@H](C)C=C2C=C[C@H](C)[C@H](CC[C@@H]3C[C@@H](O)CC(=O)O3)[C@H]21` [Lovastatin, lovastatin], the “antiviral activity (in words)” value ([2]; 48 hours) was “weakly inhibitory”.

For `C[C@]12C=CC(=O)C=C1CC[C@H]1[C@@H]3C[C@@H](O)[C@](O)(C(=O)CO)[C@@]3(C)C[C@H](O)[C@@]12F` [Triamcinolone, triamcinolone, reference compound], the “primary screen hit result (in words)” value [1] was “Proviral” and the “proviral effect” value ([2]; 48 hours) was “confirmed to increase HCV replication”.

In the case of `C[C@]12C=CC(=O)C=C1CC[C@@H]1[C@@H]2[C@@H](O)C[C@@]2(C)[C@H]1CC[C@]2(O)C(=O)CO` [prednisolone], the “proviral effect” value ([2]; 48 hours) was “increased HCV replication”.

With `CC1(C)C=Cc2cc3ccc(=O)oc3cc2O1` [xanthylentin, reference compound] the “primary screen hit result (in words)” value [1, 4] was “Proviral”.

`CC(C)NCC(O)COc1cccc2ccccc12` (stereo not shown) [propranolol, reference compound] was tested, and the “primary screen hit result (in words)” value [1] was “Antiviral”.
